Measured values reported in patent publication US20130338176A1, “METHODS OF PREVENTING AND TREATING HYPERLIPIDEMIA OR ATHEROSCLEROSIS” (The Trustees of Columbia University in the City of New York, priority 2010, published 2013).

Columns and labels:
adipose tissue explants [1] = assay: Adipose tissue explants, FFA and glycerol release on stimulation with serotonin; format: cell-based, mice; conditions: white adipose tissue explants, ex vivo
Experimental: (§1) Epigonadal fat pads were isolated from 8 week old wild type male mice, cut into 20 mg fragments, and placed in culture medium (DMEM low glucose, 0.1% bovine serum albumin, both from Invitrogen) in a cell incubator (37° C., 5% CO2 atmosphere) for 2 h. After this time, the fat explants were stimulated for 2 h with different concentrations of serotonin. Concentrations of free fatty acids (FFA) and glycerol were measured in the medium. For gene expression analysis, tissue was homogenized in TRIZOL® reagent (Sigma) and RNA was isolated according to the manufacturer's instructions. The RNA was used as a template for cDNA synthesis (cDNA synthesis kit, Invitrogen). The relative gene expression was quantified using Real Time PCR.

adipose tissue explants [2] = assay: Adipose tissue explants, mRNA expression of lipolysis genes (Real Time PCR); format: cell-based, mice; conditions: 25 μM serotonin, vs untreated control
Experimental: as §1

ApoE−/− mice [3] = assay: Plasma serotonin determination (ELISA), ApoE−/− mice; format: in vivo; conditions: high cholesterol diet 12 weeks, 200 mg per kg per day orally, vs placebo
Text: (§2) To study the effect of gut-derived serum or plasma serotonin on the development of atherosclerosis, two well-studied genetic mouse models of hypercholesterolemia and atherosclerosis were used, namely mice with deletions in both copies of the apoliprotein E gene (referred to as ApoE−/− mice) and mice carrying deletions of both copies of the low density lipoprotein receptor gene (LDLR−/− mice). These mice have elevated blood cholesterol levels due to a defect in hepatic clearance of cholesterol containing very low density lipoproteins and low density lipoproteins (Ishibashi et al., 1993, J. Clin. Invest. 92:883-893; Plump et al., 1992, Cell 71:343-353). To accelerate the process of atherosclerotic plaque development, the mice were placed on a high cholesterol rodent diet at 5 weeks of age and fed this diet for 12 weeks. During this period, the mice were orally administrated placebo (diluent) or LP-533401, an inhibitor of tryptophan hydroxylase 1 (TPH1), the key enzyme required for serum or plasma serotonin synthesis, at the dose of 200 mg per kg of body weight per day (FIG. 1).
Serotonin content in the plasma was determined using Serotonin research ELISA (IBL, Cat. No. IB89540) according to the manufacturer's instructions.

LDLR−/− mice [4] = assay: Atherosclerotic plaque area in Oil Red O stained aortas, LDLR−/− mice; format: in vivo; conditions: vs placebo
Text: as §2, with “During this period, the mice were orally administrated placebo (diluent) or LP-533401, an inhibitor of tryptophan hydroxylase 1 (TPH1), the key enzyme required for serum or plasma serotonin synthesis, at the dose of 200 mg per kg of body weight per day (FIG. 1).” left out
(§3) After 12 weeks of high cholesterol diet and administration of therapeutic agent or placebo, the mice were sacrificed to determine the amount of atheromas in their aortas. […] A quantitative computer-assisted image analysis (ImageJ) of the plaque staining areas was performed and correlated with the whole vessel wall areas.

LDLR−/− mice [5] = assay: Plasma cholesterol and triglyceride levels, LDLR−/− mice; format: in vivo; conditions: high cholesterol diet, vs placebo
Text: as §2, with “During this period, the mice were orally administrated placebo (diluent) or LP-533401, an inhibitor of tryptophan hydroxylase 1 (TPH1), the key enzyme required for serum or plasma serotonin synthesis, at the dose of 200 mg per kg of body weight per day (FIG. 1).” left out
(§4) Cholesterol, triglycerides, glycerol, and free fatty acids were measured in plasma from 4 hours fasted mice using commercially available kits (Cholesterol E, Wako, Cat. No. 439-17501; Triglycerides determination kit, Sigma, Cat. No. TR0100-1KT (measures both triglycerides and glycerol), HR Series NEFA-HR, Wako, Cat. No. 999-34691) according to the manufacturer's instructions.

ApoE−/− mice [6] = assay: Plasma cholesterol, triglyceride, glycerol and free fatty acid levels, ApoE−/− mice; format: in vivo
Text: as §2, §4

ApoE−/− mice [7] = assay: Atherosclerotic plaque area in Oil Red O stained aortas, ApoE−/− mice; format: in vivo; conditions: vs placebo
Text: as §2, with “During this period, the mice were orally administrated placebo (diluent) or LP-533401, an inhibitor of tryptophan hydroxylase 1 (TPH1), the key enzyme required for serum or plasma serotonin synthesis, at the dose of 200 mg per kg of body weight per day (FIG. 1).” left out
as §3

wild type mice = assay: Plasma cholesterol, triglyceride, glycerol and free fatty acid levels, wild type mice; format: in vivo; conditions: vs placebo
Experimental: as §4

[8] = 2 h stimulation, all tested concentrations
[9] = ApoE−/− mice fed high cholesterol diet, vs placebo
[10] = ApoE−/− mice fed normal rodent chow diet, vs placebo

In the case of `NCCc1c[nH]c2ccc(O)cc12` [serotonin, 5-hydroxytryptamine], the “concentration giving the highest stimulation of FFA and glycerol secretion” value (adipose tissue explants [1]) is reported as 25 µM, the “secretion of FFA from the adipose tissue” value (adipose tissue explants [1]; [8]) is reported as “stimulated secretion” and the “secretion of glycerol from the adipose tissue” value (adipose tissue explants [1]; [8]) is reported as “stimulated secretion”. For the same compound, the “expression levels of CGI58” value (adipose tissue explants [2]) was “does not influence the expression levels”, the “expression levels of GOS2” value (adipose tissue explants [2]) was “does not influence the expression levels” and the “expression levels of perilipin” value (adipose tissue explants [2]) was “does not influence the expression levels”. The “expression of adipose triglyceride lipase (ATGL)” value (adipose tissue explants [2]) was “does not affect” and the “expression of hormone sensitive lipase (HSL)” value (adipose tissue explants [2]) was “promotes the expression”.

For `Nc1nc(OC(c2ccc(-c3cccc(F)c3)cc2)C(F)(F)F)cc(-c2ccc(C[C@H](N)C(=O)O)cc2)n1` (stereo partly drawn) [LP-533401], the “reduction of plasma serotonin levels” value (ApoE−/− mice [3]) was 80%, the “reduction in the amount of atherosclerotic plaques” value (LDLR−/− mice [4]; high cholesterol diet 12 weeks, 200 mg per kg per day orally) was 40% and the “atheroma formation” value (LDLR−/− mice [4]; FIG. 3) was “lowers atheroma formation”. For the same compound, the triglyceride levels (LDLR−/− mice [5]) was “does not alter triglyceride levels”, the FFA levels (ApoE−/− mice [6]; [9]) was “reduced” and the glycerol levels (ApoE−/− mice [6]; [9]) was “reduced”. For the same compound, the FFA levels (ApoE−/− mice [6]; [10]) was “reduced”, the glycerol levels (ApoE−/− mice [6]; [10]) was “reduced” and the “cholesterol levels in plasma, reduced in comparison to placebo” value (ApoE−/− mice [6]; ApoE−/− mice, high cholesterol diet, 200 mg per kg per day orally, 4 hours fasted) was 30%. The triglyceride levels (ApoE−/− mice [6]; ApoE−/− mice, high cholesterol diet, vs placebo) was “does not alter triglyceride levels”, the “reduction of the area occupied by atherosclerotic plaques” value (ApoE−/− mice [7]; high cholesterol diet 12 weeks, 200 mg per kg of body weight per day orally) was 44% and the “atheroma formation” value (ApoE−/− mice [7]; FIG. 2) was “decreased atheroma formation”. For the same compound, the FFA levels (wild type mice) was “reduced”, the cholesterol levels (wild type mice) was “did not alter cholesterol levels” and the glycerol levels (wild type mice) was “reduced”. The triglyceride levels (wild type mice) was “lowers triglyceride levels”.
